This note sets out measurements from patent US8012979B2, “Compounds and their uses 707” (AstraZeneca AB, priority 2007, dated 2011).

Each structure is given as a SMILES string.

T1 sequence (Q16539 whole entry): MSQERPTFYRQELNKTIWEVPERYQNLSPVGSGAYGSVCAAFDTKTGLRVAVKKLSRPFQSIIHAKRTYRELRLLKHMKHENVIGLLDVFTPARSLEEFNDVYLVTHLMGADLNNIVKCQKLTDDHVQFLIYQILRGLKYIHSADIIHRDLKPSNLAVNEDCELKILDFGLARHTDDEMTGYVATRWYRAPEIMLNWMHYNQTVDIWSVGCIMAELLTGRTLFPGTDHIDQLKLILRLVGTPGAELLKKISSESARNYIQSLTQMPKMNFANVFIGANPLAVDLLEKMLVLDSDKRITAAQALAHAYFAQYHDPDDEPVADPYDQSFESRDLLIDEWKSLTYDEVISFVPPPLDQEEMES

The experiment addresses T1, human active recombinant p38α-6His tagged (Homo sapiens, UniProt Q16539).
T1 construct: 6His
The experiment is described as follows: p38 Alpha Enzyme Assay (AlphaScreen, biotinylated-ATF2 substrate). Format: biochemical. Particulars: pre-incubated 4 hours at 37° C., reaction initiated with ATP; 0.5 nM enzyme; read-out: p38 pIC50 (converted). As for the experimental part: The ability of the compounds of formula (I) to inhibit p38 kinase may be determined using the following biological assay:
Enzyme assays were performed in polypropylene 96 well plates. The following solutions were added to each well; 10 μL of compound dilutions in assay buffer (20 mM HEPES pH 7.4, containing 20 mM magnesium acetate, 0.005% (w/v) Tween-20, 10 mM DTT) containing 1% (v/v) DMSO or assay buffer containing 1% (v/v) DMSO alone, 70 μL of assay buffer containing 36 nM substrate (biotinylated-ATF2) and 10 μL of an appropriate dilution of human active recombinant p38α-6His tagged. Depending on batch of p38, an appropriate dilution was typically a 5 nM solution to give a final enzyme concentration of 0.5 nM. At this stage, background control wells also received 50 μL of AlphaScreen quench buffer (10 mM HEPES pH 7.4 containing 100 mM EDTA, 0.2% (w/v) bovine serum albumin). The plate was covered, pre-incubated for 4 hours at 37° C. and the enzyme reaction initiated by addition of 10 μL 1 mM ATP. After incubation for a further 45 minutes at 37° C., the reaction was stopped by addition of 50 μL quench reagent and 50 μL of the quenched reaction mixture transferred to an opaque, white 96-well plate. Detection reagent, 25 μL of 10 mM HEPES pH 7.4 containing 100 mM EDTA, 0.2% (w/v) bovine serum albumin, 0.3 nM anti phosphoATF2 antibody and 25 μg/mL of ‘AlphaScreen protein A acceptor and donor beads’ (PerkinElmer Inc.), was added to all wells in a darkened room, the plate sealed and left in the dark for at least 5 hours before AlphaScreen readings were taken using a Perkin Elmer EnVision reader. Total, uninhibited activity was determined from assays performed in each assay plate. The mean control in the absence of p38 activity was subtracted from each well. Data were expressed as percent inhibition of total activity using equation 1. Percent Inhibition=100*(1−Test/Control) Eq.1 Where . . . . • Test=p38 kinase activity in the presence of compound • Control=p38 kinase activity in the absence of compound.
pIC50 is defined as the logarithm of the reciprocal of the concentration of compound required for 50% reduction in total p38 kinase activity.
(In general: In Alpha technology, singlet oxygen from a donor bead excites a nearby acceptor bead.)
Consider `Cc1ccc(C(=O)NC2CC2)cc1-c1ccc2c(=O)n(Cc3ccc(CNC(C)(C)C)cc3)ccc2c1` [Example 28, 3-(2-(4-((Tert-butylamino)methyl)benzyl)-1-oxo-1,2-dihydroisoquinolin-6-yl)-N-cyclopropyl-4-methylbenzamide], for which the IC50 is 1 nM. Consider `Cc1ccc(C(=O)NC2CC2)cc1-c1ccc2c(=O)n(Cc3ccc(OCCCN(C)C)nc3)ccc2c1` [Example 29, N-Cyclopropyl-3-(2-((6-(3-(dimethylamino)propoxy)pyridin-3-yl)methyl)-1-oxo-1,2-dihydroisoquinolin-6-yl)-4-methylbenzamide], for which the IC50 was 1.58 nM. The same measure for `Cc1ccc(C(=O)NC2CC2)cc1-c1ccc2c(=O)n(Cc3ccc(OCCN(C)C)nc3)ccc2c1` [Example 30, N-Cyclopropyl-3-(2-((6-(2-(dimethylamino)ethoxy)pyridin-3-yl)methyl)-1-oxo-1,2-dihydroisoquinolin-6-yl)-4-methylbenzamide]: 1 nM; for `Cc1ccc(C(=O)NC2CC2)cc1-c1ccc2c(=O)n(Cc3ccc(OCCN4CCCC4)nc3)ccc2c1` [Example 31, N-Cyclopropyl-4-methyl-3-(1-oxo-2-((6-(2-(pyrrolidin-1-yl)ethoxy)pyridin-3-yl)methyl)-1,2-dihydroisoquinolin-6-yl)benzamide]: 0.631 nM.

`Cc1ccc(C(=O)NC2CC2)cc1-c1ccc2c(=O)n(Cc3ccc(OCCN(C)C)cc3)ccc2c1` [Example 32, N-Cyclopropyl-3-(2-(4-(2-(dimethylamino)ethoxy)benzyl)-1-oxo-1,2-dihydroisoquinolin-6-yl)-4-methylbenzamide]: the IC50 is 0.501 nM. The same measure for `Cc1ccc(C(=O)NC2CC2)cc1-c1ccc2c(=O)n(Cc3cccc(OCCN4CCCC4)c3)ccc2c1` [Example 33, N-Cyclopropyl-4-methyl-3-{1-oxo-2-[3-(2-pyrrolidin-1-ylethoxy)benzyl]-1,2-dihydroisoquinolin-6-yl}benzamide]: 2 nM. As for `CNCCOc1cccc(Cn2ccc3cc(-c4cc(C(=O)NC5CC5)ccc4C)ccc3c2=O)c1` [Example 34, N-Cyclopropyl-4-methyl-3-(2-{3-[2-(methylamino)ethoxy]benzyl}-1-oxo-1,2-dihydroisoquinolin-6-yl)benzamide], the IC50 is 2.51 nM. With `Cc1ccc(C(=O)NC2CC2)cc1-c1ccc2c(=O)n(Cc3cccc(OCCNCCO)c3)ccc2c1` [Example 35, N-Cyclopropyl-3-[2-(3-{2-[(2-hydroxyethyl)amino]ethoxy}benzyl)-1-oxo-1,2-dihydroisoquinolin-6-yl]-4-methylbenzamide] the figure was 2 nM. The same measure for `CNCCOc1ccc(Cn2ccc3cc(-c4cc(C(=O)NC5CC5)ccc4C)ccc3c2=O)cc1` [Example 36, N-Cyclopropyl-4-methyl-3-(2-(4-(2-(methylamino)ethoxy)benzyl)-1-oxo-1,2-dihydroisoquinolin-6-yl)benzamide]: 0.398 nM; for `Cc1ccc(C(=O)NC2CC2)cc1-c1ccc2c(=O)n(CC3CC3)cc(C(=O)N3CC[C@@H](N)C3)c2c1` [Example 37, (R)-3-(4-(3-Aminopyrrolidine-1-carbonyl)-2-(cyclopropylmethyl)-1-oxo-1,2-dihydroisoquinolin-6-yl)-N-cyclopropyl-4-methylbenzamide]: 3.98 nM. With `Cc1ccc(C(=O)NC2CC2)cc1-c1ccc2c(=O)n(CC3CC3)cc(C(=O)NC3CCN(C)CC3)c2c1` [Example 38, 6-(5-(Cyclopropylcarbamoyl)-2-methylphenyl)-2-(cyclopropylmethyl)-N-(1-methylpiperidin-4-yl)-1-oxo-1,2-dihydroisoquinoline-4-carboxamide] the figure was 3.98 nM; with `Cc1ccc(C(=O)NC2CC2)cc1-c1ccc2c(=O)n(CC3CC3)cc(C(=O)N3CCN(C)CC3)c2c1` [Example 39, N-Cyclopropyl-3-(2-(cyclopropylmethyl)-4-(4-methylpiperazine-1-carbonyl)-1-oxo-1,2-dihydroisoquinolin-6-yl)-4-methylbenzamide], 5.01 nM; with `Cc1ccc(C(=O)NC2CC2)cc1-c1ccc2c(=O)n(CC3CC3)cc(C(=O)NCCN(C)C)c2c1` [Example 40, 6-(5-(Cyclopropylcarbamoyl)-2-methylphenyl)-2-(cyclopropylmethyl)-N-(2-(dimethylamino)ethyl)-1-oxo-1,2-dihydroisoquinoline-4-carboxamide], 3.98 nM.

Take `Cc1ccc(C(=O)NC2CC2)cc1-c1ccc2c(=O)n(CC3CC3)cc(C(=O)NC3CCNCC3)c2c1` [Example 41, 6-(5-(Cyclopropylcarbamoyl)-2-methylphenyl)-2-(cyclopropylmethyl)-1-oxo-N-(piperidin-4-yl)-1,2-dihydroisoquinoline-4-carboxamide]: the IC50 was 1.58 nM. The same measure for `Cc1ccc(C(=O)NC2CC2)cc1-c1ccc2c(=O)n(CC3CC3)cc(C(=O)N3CCC(N)CC3)c2c1` [Example 42, 3-(4-(4-Aminopiperidine-1-carbonyl)-2-(cyclopropylmethyl)-1-oxo-1,2-dihydroisoquinolin-6-yl)-N-cyclopropyl-4-methylbenzamide]: 1.26 nM.

As to `Cc1ccc(C(=O)NC2CC2)cc1-c1ccc2c(=O)n(CC3CC3)cc(C(=O)N3CC[C@H](N)C3)c2c1` [Example 43, (S)-3-(4-(3-Aminopyrrolidine-1-carbonyl)-2-(cyclopropylmethyl)-1-oxo-1,2-dihydroisoquinolin-6-yl)-N-cyclopropyl-4-methylbenzamide], the IC50 is 5.01 nM. With `Cc1ccc(C(=O)NC2CC2)cc1-c1ccc2c(=O)n(CC3CC3)cc(C(=O)NCCCN3CCCC3)c2c1` [Example 44, 6-(5-(Cyclopropylcarbamoyl)-2-methylphenyl)-2-(cyclopropylmethyl)-1-oxo-N-(3-(pyrrolidin-1-yl)propyl)-1,2-dihydroisoquinoline-4-carboxamide] the figure was 25.1 nM; with `Cc1ccc(C(=O)NC2CC2)cc1-c1ccc2c(=O)n(CC3CC3)cc(C(=O)N3CCC(N(C)C)CC3)c2c1` [Example 45, N-Cyclopropyl-3-(2-(cyclopropylmethyl)-(4-(dimethylamino)piperidine-1-carbonyl)-1-oxo-1,2-dihydroisoquinolin-6-yl)-4-methylbenzamide], 2.51 nM. With `Cc1ccc(C(=O)NC2CC2)cc1-c1ccc2c(=O)n(CC3CC3)cc(C(=O)N3CCN(CCN(C)C)CC3)c2c1` [Example 46, N-Cyclopropyl-3-(2-(cyclopropylmethyl)-4-(4-(2-(dimethylamino)ethyl)piperazine-1-carbonyl)-1-oxo-1,2-dihydroisoquinolin-6-yl)-methylbenzamide] the figure was 25.1 nM; with `Cc1ccc(C(=O)NC2CC2)cc1-c1ccc2c(=O)n(Cc3ccccc3)cc(C(=O)NCCN3CCCCC3)c2c1` [Example 48, 2-Benzyl-6-(5-(cyclopropylcarbamoyl)-2-methylphenyl)-1-oxo-N-(2-(piperidin-1-yl)ethyl)-1,2-dihydroisoquinoline-4-carboxamide], 2.51 nM. The same measure for `Cc1ccc(C(=O)NC2CC2)cc1-c1ccc2c(=O)n(Cc3ccccc3)cc(C(=O)NCCN3CCCC3)c2c1` [Example 49, 2-Benzyl-6-{5-[(cyclopropylamino)carbonyl]-2-methylphenyl}-1-oxo-N-(2-pyrrolidin-1-ylethyl)-1,2-dihydroisoquinoline-4-carboxamide]: 3.16 nM. `Cc1ccc(C(=O)NC2CC2)cc1-c1ccc2c(=O)n(Cc3ccccc3)cc(C(=O)NC3CCN(C)CC3)c2c1` [Example 50, 2-Benzyl-6-{5-[(cyclopropylamino)carbonyl]-2-methylphenyl}-N-(1-methylpiperidin-4-yl)-1-oxo-1,2-dihydroisoquinoline-4-carboxamide]: the IC50 was 2 nM.

As to `Cc1ccc(C(=O)NC2CC2)cc1-c1ccc2c(=O)n(Cc3ccccc3)cc(C(=O)NCCCN(C)C)c2c1` [Example 51, 2-Benzyl-6-{5-[(cyclopropylamino)carbonyl]-2-methylphenyl}-N-[3-(dimethylamino)propyl]-1-oxo-1,2-dihydroisoquinoline-4-carboxamide], the IC50 is 2 nM.

For the compound `Cc1ccc(C(=O)NC2CC2)cc1-c1ccc2c(=O)n(Cc3ccccc3)cc(C(=O)N3CCN(CCO)CC3)c2c1` [Example 52, 3-(2-Benzyl-4-{[4-(2-hydroxyethyl)piperazin-1-yl]carbonyl}-1-oxo-1,2-dihydroisoquinolin-6-yl)-N-cyclopropyl-4-methylbenzamide], the IC50 is 10 nM. With `Cc1ccc(C(=O)NC2CC2)cc1-c1ccc2c(=O)n(Cc3ccccc3)cc(C(=O)N3CC[C@@H](N)C3)c2c1` [Example 53, (R)-3-(4-(3-Aminopyrrolidine-1-carbonyl)-2-benzyl-1-oxo-1,2-dihydroisoquinolin-6-yl)-N-cyclopropyl-4-methylbenzamide] the figure was 2 nM.
